Test results as given in patent US12310975B2, “Modulators of BCL6 proteolysis and associated methods of use” (Arvinas Operations, Inc., priority 2019, dated 2025).

Target: BCL6 (Homo sapiens (Human), UniProt P41182)
Assay: Immunofluorescence high content imaging of BCL6 degradation in T47D cells
Format: cell-based
Details: class symbols A-D, read-out: EC50 (nM)*
Outline: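 T47D cells were treated for 3 days at 37 °C with 11-point 3-fold dilutions of bifunctional degrader (final top 0.1 or 1 μM). BCL6 was detected by immunofluorescence after PFA fixation, with Hoechst and cell mask counterstains, and imaged at 10×, 4 fields/well.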

SMILES	DC50 [nM]
CNC(=O)COc1cc2cc(Nc3nc(N4CCC(OCCOCCOCCCOc5ccccc5CCOc5ccc6c(c5)CN(C5CCC(=O)NC5=O)C6=O)CC4)ncc3Cl)ccc2n(C)c1=O (stereo not drawn) [compound 111, 2-((6-((5-chloro-2-(4-(2-(2-(3-(2-(2-((2-(2,6-dioxopiperidin-3-yl)-1-oxoisoindolin-5-yl)oxy)ethyl)phenoxy)propoxy)ethoxy)ethoxy)piperidin-1-yl)pyrimidin-4-yl)amino)-1-methyl-2-oxo-1,2-dihydroquinolin-3-yl)oxy)-N-methylacetamide]	> 100
CNC(=O)COc1cc2cc(Nc3nc(N4CCC(Cc5cn(CCOc6ccc7c(c6)C(=O)N(C6CCC(=O)NC6=O)C7=O)nn5)CC4)ncc3Cl)ccc2n(C)c1=O (stereo not drawn) [compound 112, 2-((6-((5-chloro-2-(4-((1-(2-((2-(2,6-dioxopiperidin-3-yl)-1,3-dioxoisoindolin-5-yl)oxy)ethyl)-1H-1,2,3-triazol-4-yl)methyl)piperidin-1-yl)pyrimidin-4-yl)amino)-1-methyl-2-oxo-1,2-dihydroquinolin-3-yl)oxy)-N-methylacetamide]	10 to 50
CNC(=O)COc1cc2cc(Nc3nc(N4CCC(Cc5cn(CCOCCOc6ccc7c(c6)C(=O)N(C6CCC(=O)NC6=O)C7=O)nn5)CC4)ncc3Cl)ccc2n(C)c1=O (stereo not drawn) [compound 113, 2-((6-((5-chloro-2-(4-((1-(2-(2-((2-(2,6-dioxopiperidin-3-yl)-1,3-dioxoisoindolin-5-yl)oxy)ethoxy)ethyl)-1H-1,2,3-triazol-4-yl)methyl)piperidin-1-yl)pyrimidin-4-yl)amino)-1-methyl-2-oxo-1,2-dihydroquinolin-3-yl)oxy)-N-methylacetamide]	50 to 100
CNC(=O)COc1cc2cc(Nc3nc(N4CCC(c5cn(CCOCC(=O)N[C@H](C(=O)N6C[C@H](O)C[C@H]6C(=O)N[C@@H](C)c6ccc(-c7scnc7C)cc6)C(C)(C)C)nn5)CC4)ncc3Cl)ccc2n(C)c1=O [compound 114, (2S,4R)-1-((S)-2-(2-(2-(4-(1-(5-chloro-4-((1-methyl-3-(2-(methylamino)-2-oxoethoxy)-2-oxo-1,2-dihydroquinolin-6-yl)amino)pyrimidin-2-yl)piperidin-4-yl)-1H-1,2,3-triazol-1-yl)ethoxy)acetamido)-3,3-dimethylbutanoyl)-4-hydroxy-N-((S)-1-(4-(4-methylthiazol-5-yl)phenyl)ethyl)pyrrolidine-2-carboxamide]	50 to 100
CNC(=O)COc1cc2cc(Nc3nc(N4CCC(c5cn(CCOCCOCC(=O)N[C@H](C(=O)N6C[C@H](O)C[C@H]6C(=O)N[C@@H](C)c6ccc(-c7scnc7C)cc6)C(C)(C)C)nn5)CC4)ncc3Cl)ccc2n(C)c1=O [compound 115, (2S,4R)-1-((S)-2-(2-(2-(2-(4-(1-(5-chloro-4-((1-methyl-3-(2-(methylamino)-2-oxoethoxy)-2-oxo-1,2-dihydroquinolin-6-yl)amino)pyrimidin-2-yl)piperidin-4-yl)-1H-1,2,3-triazol-1-yl)ethoxy)ethoxy)acetamido)-3,3-dimethylbutanoyl)-4-hydroxy-N-((S)-1-(4-(4-methylthiazol-5-yl)phenyl)ethyl)pyrrolidine-2-carboxamide]	10 to 50
CNC(=O)COc1cc2cc(Nc3nc(N4CCC(c5cn(CCOCCOCCOCC(=O)N[C@H](C(=O)N6C[C@H](O)C[C@H]6C(=O)N[C@@H](C)c6ccc(-c7scnc7C)cc6)C(C)(C)C)nn5)CC4)ncc3Cl)ccc2n(C)c1=O [compound 116, (2S,4R)-1-((S)-2-(tert-butyl)-14-(4-(1-(5-chloro-4-((1-methyl-3-(2-(methylamino)-2-oxoethoxy)-2-oxo-1,2-dihydroquinolin-6-yl)amino)pyrimidin-2-yl)piperidin-4-yl)-1H-1,2,3-triazol-1-yl)-4-oxo-6,9,12-trioxa-3-azatetradecanoyl)-4-hydroxy-N-((S)-1-(4-(4-methylthiazol-5-yl)phenyl)ethyl) pyrrolidine-2-carboxamide]	10 to 50
